From patent US11311598B2, “Peptides and analogs for use in the treatment of oral mucositis” (Soligenix, Inc., priority 2013, dated 2022)
Entries after “also recorded” stand apart in the source; their conditions may differ. Where no end group is shown, it is not given here.

Key:
male C3H/HeN mice = assay: chemotherapy-induced oral and gastrointestinal mucositis in the mouse; format: in vivo
Protocol: In each study, 5-fluorouracil (60 mg/kg IP) was administered to male C3H/HeN mice on Days −4 and −2. […] […] Body weights were also measured daily and colitis severity was determined by video endoscopy on Days 4 and 7. In the first study, RIVPA (SEQ ID NO. 5) (25 mg/kg IV) was administered either once on Day −4 immediately prior to chemotherapy, twice on Days −4 and −2 immediately after chemotherapy or 3 times on Days −1, 2 and 5. […] In the second study, RIVPA (SEQ ID NO. 5) (25 mg/kg IV) was administered on either Days −1, 2 and 5, Days −1, 1 and 3 or Days 0, 2, and 4. […] In the third study, RIVPA (SEQ ID NO. 5) (25 or 5 mg/kg IV, as indicated) was administered either on Days −1, 2 and 5 or on Days 1 and 3. […] Statistical significance was assessed for oral mucositis using a chi-square analysis and for body weight area under the curve (AUC) with an ANOVA on ranks. […] Treatment with R(tBg)V1KR(tBg)V2 (SEQ ID NO. 91) and RIV(mp2)A-NH2 (SEQ ID NO. 92) was administered on Days −1 and 2 at a dose of 25 mg/kg IV.

male C57BL/6 mice = assay: DSS-induced colitis model; format: in vivo, mouse
Protocol: The ability of IV RIVPA (SEQ ID NO. 5), administered pre-emptively or therapeutically, to directly protect GI mucosal surfaces was confirmed in a DSS-induced colitis model. In this model, DSS was administered as a 3% DSS solution in the drinking water of male C57BL/6 mice from Days 0 to 5 of the study. Colitis was monitored by video endoscopy on Days 7, 14 and 21. RIVPA (SEQ ID NO. 5) (25 mg/kg IV) was administered every third day from Days 0 to 18 (Q3d d0-18), from Days 3 to 18 (Q3d d3-18) or from Days 6 to 18 (Q3d d6-18). […] However, reduction in Day 7 scores was only observed in groups which had received at least 2 doses of RIVPA (SEQ ID NO. 5) by that time (i.e., Q3d d0-18 and Q3d d3-18 but not Q3d d6-18). […] Statistical analysis was undertaken using t-tests and an asterisk indicates statistically significant differences from control (p<0.05).

MRSA = MRSA skin infection model; format: in vivo, mouse
Protocol: Infection was initiated 1 day after the hair was removed from the dorsal area of each mouse. RIVPA (SEQ ID NO. 5) (25 mg/kg IV or 100 mg/kg SC) was administered 4 h prior to infection and at various times after infection as indicated. Oral linezolid was used as the comparator and was administered daily at 12.5 mg/kg. On Day 0 (at −1 h) each mouse was anesthetized using isoflurane and the shaved dorsal skin was damaged by 7 consecutive applications and removals of surgical tape. This lesion was then immediately infected by topical administration of 10 μL of the bacterial suspension, delivering a total challenge of 7.6 login cfu per mouse. Efficacy was evaluated by measurement of the bacterial burden in punch biopsies of the skin at 48 h (FIG. 14—panel A) and 96 h (FIG. 14—panel B) following the bacterial challenge and by macroscopic assessment of digital images of the skin by a blinded, board-certified pathologist at 48 h (FIG. 14—panel C) and 96 h (FIG. 14—panel D) after infection. […] The mean bacterial burden for each therapeutic group was statistically compared to that of its time-matched saline control through use of a t-test comparison of means, assuming unequal variances, performed on Excel. Comparisons which returned a p value […] were considered statistically different.

cynomolgus monkey = assay: cardiovascular (CV)/pulmonary study in cynomolgus monkey; format: in vivo
Text: In summary, the major toxicological finding was an acute-onset respiratory depression, accompanied by labored breathing, recumbency and transient decreased activity.

[1] = test system: CNS receptors and ion channels; assay: battery of CNS receptors and ion channels in vitro; format: binding
Protocol: No effects of RIVPA (SEQ ID NO. 5) have been observed on the central nervous system (CNS) in any study at any dose level and little or no radiolabelled RIVPA (SEQ ID NO. 5) was found in the mouse CNS at dose levels of either 20 or 90 mg/kg.

human normal blood cells = assay: proliferation of human normal blood cells in vitro; format: cell-based
[2] = test system: primary human leukemia cells; assay: proliferation of primary human leukemia cells in vitro; format: cell-based
CYP450 enzymes = assay: processing by or inhibition of CYP450 enzymes; format: in vitro ADME
[3] = Phase 1 study, human pharmacokinetics; format: in vivo
Protocol: In the single-dose phase of a healthy volunteer Phase 1 trial, RIVPA (SEQ ID NO. 5) was rapidly eliminated, with plasma levels decreasing to less than 10 percent of the maximum concentration (Cmax) within 9 min after the start of the 4-minute IV infusion. Following the rapid decline, a slower elimination phase was observed. […] Maximum plasma concentrations and total exposure levels were dose-proportional and clearance of RIVPA (SEQ ID NO. 5) from the circulation was rapid, consistent with the mouse and NHP experience.
In light of the high clearance and short elimination half-life, accumulation following daily injection was not expected to occur.

[4] = mouse, 5-fluorouracil chemotherapy model, RIVPA IV

Substance: RIVPA-NH2 [RIVPA (SEQ ID NO. 5), RIVPA]
- treatment effectiveness on mucositis (male C3H/HeN mice; first study, 25 mg/kg IV 3 times on Days −1, 2 and 5): most effective
- duration of severe oral mucositis (male C3H/HeN mice; mouse, 5-fluorouracil 60 mg/kg IP Days −4 and −2, chemical burn of tongue Day 0, RIVPA IV): reduces; also recorded: statistically significant reduction
- body weight loss (male C3H/HeN mice; [4]): reduces
- severity of colitis (video endoscopy) (male C3H/HeN mice; [4]): reduces; also recorded: trend towards reduced colitis
- efficacy at decreased dose levels (male C3H/HeN mice; third study, 5 vs 25 mg/kg IV): decreased efficacy
- treatment effectiveness on mucositis (male C3H/HeN mice; third study, dosing every third day (Days −1, 2 and 5)): most effective
- endoscopic colitis severity score (male C57BL/6 mice; Day 7, Q3d d0-18): reduction
- endoscopic colitis severity score (male C57BL/6 mice; Day 7, Q3d d3-18): reduction
- endoscopic colitis severity score (male C57BL/6 mice; Day 14, all regimens, 25 mg/kg IV every third day): statistically significant reduction
- endoscopic colitis response (male C57BL/6 mice; Day 21, all 3 treatment groups): responding in a similar manner
- edema and necrosis, histopathology of the colon (male C57BL/6 mice; Day 21, some RIVPA treated groups): statistically significantly decreased
- severity of DSS-induced colitis (male C57BL/6 mice; endoscopy days 7, 14, 21 and histopathology day 21, FIG. 3): reduces
- skin healing (MRSA; 25 mg/kg IV or 100 mg/kg SC, 4 h prior to infection and after): accelerating skin healing
- bacterial load in skin punch biopsies relative to control (MRSA; 48 or 96 h after bacterial challenge): neither linezolid nor RIVPA (SEQ ID NO. 5) reduced bacterial load
- resolution of tissue damage in topically MRSA-infected skin (MRSA; FIG. 14): enhances
- clinical signs (cynomolgus monkey; 80 mg/kg, during dosing): transient drooping eye lids and prostration
- clinical signs (cynomolgus monkey; 220 mg/kg): transient, severe clinical signs
- respiratory/cardiovascular effects and mortality (cynomolgus monkey; 220 mg/kg, 1 animal): marked reduction in respiratory rate followed by bradycardia, hypotension and death
- respiratory effects (cynomolgus monkey; 20 or 80 mg/kg): No respiratory effects
- cardiac toxicity or QT prolongation (cynomolgus monkey; nonhuman primates): no cardiac toxicity or QT prolongation
- cardiovascular effects and ECG parameters (cynomolgus monkey; single IV doses of 20 or 80 mg/kg): no cardiovascular effects or changes in electrocardiogram (ECG) parameters
- interaction with CNS receptors and ion channels [1]: No interaction was detected
- proliferation of normal blood cells (human normal blood cells): did not promote the proliferation
- proliferation of primary leukemia cells [2]: did not promote the proliferation
- inhibition of CYP450 enzymes (CYP450 enzymes): lack
- processing by CYP450 enzymes (CYP450 enzymes): lack
- pre-dose concentrations ([3]; daily for 7 days, Days 5, 6, 7 and Day 8 (24 h after start of infusion on Day 7), all subjects): below the lower limit of quantitation (LLOQ)
- clearance from the circulation ([3]; human subjects, IV administration): within minutes
- Tmax ([3]; human, plasma, intravenous, after the start of infusion, dose range 0.15 mg/kg to 8 mg/kg, read-out: mean time of maximum concentration (Tmax)): 4 to 4.8 min
- maximum plasma concentrations and total exposure levels versus dose ([3]; single-dose phase): dose-proportional
- plasma levels relative to the maximum concentration (Cmax) ([3]; within 9 min after the start of the 4-minute IV infusion, single-dose phase): less than 10%
